Experimental data published in patent publication US20190262355A1, “COMBINATION OF A BRD4 INHIBITOR AND AN ANTIFOLATE FOR THE THERAPY OF CANCER” (CeMM-Forschungszentrum für Molekulare Medizin GmbH, priority 2016, published 2019).

How the values were obtained:
BRD4 = assay: REDS reporter cell line, RFP expression (Redness) on BRD4 inhibition; type: cell-based, human
Source text: Live cell imaging pictures were taken from cells seeded on clear flat bottom 96-well or 384-well plates (Corning), with the Operetta High Content Screening System (PerkinElmer), 20× objective and non-confocal mode. RFP quantification was done using the basic PerkinElmer software for nuclei detection and analysis, adapted for the nucleus diameter range of the specific cell line used (KBM7, 13 μm). Only RFP positive nuclei were detected and counted.
(§1) The prerequisite for effective GT genetic screens is a haploid system where monoallelic disruptive GT integration results in gene knock-out (KO). Therefore, KBM7 cells, a chronic myeloid leukemia cell line with near haploid karyotype, were chosen for the generation of the BRD4 reporter cell lines as previously described^15. […] Propidium iodide (PI) incorporation and FACS analysis were used to assay the cell cycle profile of several REDS clones in order to select a haploid clone suitable for GT-based genetic screen.
The suitability of the REDS1 clone for a GT-based genetic screen was then further validated.

BRD4-MTHFD1 interaction = target: T1, BRD4-MTHFD1 interaction (Homo sapiens, UniProt O60885+P11586); assay: MTHFD1 pull-down on HAP1 whole cell lysates (BRD4-MTHFD1 interaction); type: binding; conditions: HAP1 whole cell lysates treated with 50 μM (FIG. 9I)
T1 construct: MTHFD1 pull-down performed on HAP1 whole cell lysates treated with 50 μM (S)-JQ1, MTX; endogenous in cells; host or cells: HAP1
Procedure: For immunoprecipitation, 1 mg of protein extract was incubated overnight at 4° C. with 10 μl of Dynabeads (either A or G, Life technology) preincubated for 2 hours at 4° C. with 1 μg of BRD4 (ab128874, Abcam), MTHFD1 (A8, Santa Cruz) or GFP (G10362, Life Technology) antibodies.

chromatin-bound BRD4 = target: T2, chromatin-bound BRD4 (Homo sapiens, UniProt O60885); assay: Western blot of chromatin associated proteins: BRD4; type: cell-based; conditions: HAP1 cells, MTX 1 μM, 2 or 24 hours (FIG. 2C)
T2 construct: Western Blot assay performed on chromatin associated protein samples extracted from HAP1 cells treated with the indicated compounds; endogenous in cells; host or cells: HAP1
Procedure: Cell fractionation and chromatin enrichment was carried out as previously described^29 with some adaptations. Briefly, for 100 million cells, the chromatin enriched pellet was taken up in 250 μl benzonase digestion buffer (15 mM HEPES, 1 mM EDTA, 1 mM EGTA, 0.1% NP40, protease inhibitor cocktail (cOmplete, Roche)) after washing, and sonicated for 120 seconds on the Covaris S220 focused-ultrasonicator with the following settings: Peak Power 140; Duty-Factor 10.0; Cycles/Burst 200. After addition of 0.25 U benzonase and 2.5 μg RNase, the chromatin was incubated for 40 minutes at 4° C. on a rotary shaker. 2× SDS lysis buffer (100 mM HEPES, 4% SDS, 2 mM PMSF and protease inhibitor cocktail (cOmplete, Roche)) was added to the samples in a 1:1 ratio and incubated for 10 minutes at room temperature followed by 5 minutes denaturation at 99° C. After centrifugation at 16,000 g for 10 minutes at room temperature, the supernatant was transferred to a new tube.

[1] = test system: MTHFD1 nuclear localization; assay: Nuclear vs cytosol fractionation Western blot in HAP1 cells; type: cell-based, human; conditions: MTX 1 μM, 24 hours (FIG. 2D)
Procedure: For Western Blot, proteins were separated on polyacrylamide gels with SDS running buffer (50 mM Tris, 380 mM Glycine, 7 mM SDS) and transferred to nitrocellulose blotting membranes. All membranes were blocked with blocking buffer (5% (m/v) milk powder (BioRad) in TBST (Tris-Buffered Saline with Tween: 50 mM Tris (tris (hydroxymethyl)aminomethane), 150 mM NaCl, 0.05% (v/v) Tween 20, adjusted to pH 7.6). Proteins were probed with antibodies against BRD4 (ab128874, 1:1000, Abcam), Actin (ab16039, 1:1000, Abcam), MTHFD1 (ab70203, Abcam; H120, Santa Cruz; A8, Santa Cruz; all used at 1:1000), GFP (G10362, 1:1000, Life Technology), RCC1 (C-20, 1:1000, Santa Cruz), β-Tubulin (T-4026, 1:1000, Sigma), SHMT1 (ab186130, 1:1000, Abcam) and H2B (ab156197, 1:1000, Abcam) and detected by HRP (horseradish peroxidase) conjugated donkey anti-rabbit IgG antibody (ab16284, 1:5000, Abcam) or donkey anti-mouse IgG antibody (Pierce) and visualized with the Pierce ECL Western Blotting substrate (Amersham), according to the provided protocol.

nuclear folate pool = assay: Folate metabolites in nuclear and cytosolic fractions of HAP1 cells (LC-MS/MS); type: cell-based, human; conditions: 6 hours, MTX and (S)-JQ1 1 μM, dBET6 0.5 μM (FIG. 19B)
Procedure: In order to quantify folates in the nuclear and cytosolic fractions, 20 millions of HAP1 cells per condition were washed twice with cold PBS, and collected into 50 ml falcon tube by centrifugation for 5 minutes at 280 g and 4° C. Cell lysis was performed on ice in the dark by incubating cell pellets with 1:5 hypotonic lysis buffer for 10 minutes. Nuclei were collected by centrifugation for 5 minutes at 420 g and 4° C. Supernatants (cytosolic fractions) were also collected. Both fractions were immediately snap frozen. For nucleus samples, 10 μL of ISTD mixture was added to nucleus pellet in 1.5 mL Eppendorf tube followed by addition of 145 μL of ice-cold extraction solvent (10 mg/mL ascorbic acid solution in 80% methanol, 20% water, v/v). The samples were vortexed for 10 seconds, afterwards incubated on ice for 3 min and vortexed again for 10 seconds. After centrifugation (14000 rpm, 10 min, 4° C.), the supernatant was collected into HPLC vials. […] An Acquity UHPLC system (Waters) coupled with Xevo TQ-MS (Waters) triple quadrupole mass spectrometer was used for quantitative analysis of metabolites. […] Quantification of all metabolites was performed using MassLynx V4.1 software from Waters. The seven-point linear calibration curves with internal standardization and 1/× weighing was constructed for the quantification.

[2] = test system: panel of six cell lines (four not sensitive to BRD4 inhibition, plus KBM7 and HAP1); assay: Cell viability of cancer cell lines, single agents and combination; type: cell-based, human; conditions: NOMO-1 the most sensitive to MTX (FIG. 13A, 13B)
Procedure: HEK293T (human embryonic kidney) and HELA (cervix adenocarcinoma) cell lines were cultured in Dulbecco's Modified Eagles Medium (DMEM, Gibco) supplemented with 10% FBS. […] All the mentioned cell lines were incubated in 5% CO2 atmosphere at 37° C.

A549 xenograft = A549 xenograft mouse model; type: in vivo; conditions: NOD SCID gamma mice; 30 mg/kg (S)-JQ1 i.p. five times per week and/or 25 mg/kg MTX i.p. twice weekly from day 19 to day 43 (FIG. 21B-D)
Procedure: Mouse xenograft studies were performed as described previously^35. 2×10^6 A549 cells, diluted 1:1 in matrigel, were transplanted subcutaneously into NOD SCID gamma mice. Treatment (30 mg/kg (S)-JQ1 by intraperitoneal injection five times per week, and 25 mg/kg MTX per intraperitoneal injection twice weekly) was started when tumors were established, 19 days post transplantation. Tumor volumes were evaluated twice a week by measuring two perpendicular diameters with calipers. Tumor volume was calculated using the following equation: (width*width*length)/2. Treatment was performed according to an animal licence protocol approved by the Bundesministerium für Wissenschaft and Forschung (BMWF-66.009/0280-II/3b/2012). At day 43 mice were sacrificed and tumors excised and weighted.

WT-KBM7 cells = assay: Cell cycle profile by PI staining and FACS (diploidization); type: cell-based, human; conditions: treated overnight during one week, PI incorporation and FACS (FIG. 6D)
Procedure: For cell cycle analysis, 1 million cells were fixed with 70% ethanol for 24 hours, washed with PBS/1% BSA/0.1% Tween and incubated with RNase for 30 minutes. Nuclei were stained with 5 μg/ml PI (propidium iodide, Sigma) for 10 minutes prior to FACS analysis (BD FACSCalibur Flow Cytometer).
as §1, with “screen. […] REDS1 was the only clonal cell line with haploid karyotype (see FIG. 6B), also confirmed by metaphase spreads (see FIG. 6C).” for “screen.”

A549 cells = assay: Cell viability of A549 cells after MTHFD1 knock-down; type: cell-based; conditions: 72 hours (S)-JQ1 (FIG. 21A)
Procedure: KBM7 (human chronic myelogenous leukemia cell lines), MV4-11 (biphenotypic B myelomonocytic leukemia), MEG-01 (human chronic myelogenous leukemia), K-562 (human chronic myelogenous leukemia) and HAP1 (KBM7-derived) cell lines were cultured in Iscove's Modified Dulbecco's Medium (IMDM, Gibco), supplemented with 10% Fetal Bovine Serum (FBS; Gibco). HEK293T (human embryonic kidney) and HELA (cervix adenocarcinoma) cell lines were cultured in Dulbecco's Modified Eagles Medium (DMEM, Gibco) supplemented with 10% FBS. MOLM-13 (human acute monocytic leukemia), NOMO-1 (human acute monocytic leukemia) and A549 (lung carcinoma) cell lines were cultured in RPMI-1640 (Roswell Park Memorial Institute, Gibco) supplemented with 10% FBS. All the mentioned cell lines were incubated in 5% CO2 atmosphere at 37° C.

T1 sequence (P11586 whole entry, other chains not shown): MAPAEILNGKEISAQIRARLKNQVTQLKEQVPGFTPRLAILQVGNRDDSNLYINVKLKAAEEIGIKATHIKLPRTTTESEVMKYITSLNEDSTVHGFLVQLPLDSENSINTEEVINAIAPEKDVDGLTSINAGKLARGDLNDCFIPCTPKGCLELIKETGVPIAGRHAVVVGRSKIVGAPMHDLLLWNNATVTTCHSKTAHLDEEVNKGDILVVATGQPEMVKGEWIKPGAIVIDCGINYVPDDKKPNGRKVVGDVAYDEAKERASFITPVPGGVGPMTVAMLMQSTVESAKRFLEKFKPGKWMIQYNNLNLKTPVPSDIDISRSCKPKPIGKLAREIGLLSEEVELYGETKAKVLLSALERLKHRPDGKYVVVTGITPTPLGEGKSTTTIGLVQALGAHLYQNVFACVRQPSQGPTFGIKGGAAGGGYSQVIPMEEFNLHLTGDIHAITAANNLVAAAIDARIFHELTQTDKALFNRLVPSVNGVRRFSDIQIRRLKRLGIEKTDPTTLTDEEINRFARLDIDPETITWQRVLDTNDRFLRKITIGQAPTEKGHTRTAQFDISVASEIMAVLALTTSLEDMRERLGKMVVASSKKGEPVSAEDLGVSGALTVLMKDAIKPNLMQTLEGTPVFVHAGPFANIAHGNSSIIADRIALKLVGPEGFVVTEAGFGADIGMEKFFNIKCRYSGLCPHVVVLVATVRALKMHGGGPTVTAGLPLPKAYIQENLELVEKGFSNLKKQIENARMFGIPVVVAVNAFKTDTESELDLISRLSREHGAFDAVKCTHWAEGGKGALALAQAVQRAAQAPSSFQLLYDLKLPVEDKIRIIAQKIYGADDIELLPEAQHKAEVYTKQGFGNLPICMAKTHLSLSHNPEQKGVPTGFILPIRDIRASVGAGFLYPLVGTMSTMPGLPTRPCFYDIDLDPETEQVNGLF

| Compound | Redness after MTX treatment (BRD4; REDS reporter cells, three days of MTX (FIG. 13C)) | effect on BRD4-MTHFD1 interaction in MTHFD1 pull-down (BRD4-MTHFD1 interaction) | BRD4 levels on chromatin after MTX (chromatin-bound BRD4) | MTHFD1 (or SHMT1) nuclear localization [1] | changes in the nuclear folate pool (nuclear folate pool) | sensitivity of cell lines to single treatment (dose response curves) [2] | tumor growth (A549 xenograft) | RFP expression detected by live cell imaging (BRD4; REDS1 cells, 1 μM, 24 hours (FIG. 7B)) | expression of the reporter gene RFP in REDS detected by FACS (BRD4; REDS clones, 0.5 μM (S)-JQ1 (FIG. 6A)) | diploidization of WT-KBM7 (cell cycle profile) (WT-KBM7 cells) | sensitivity to (S)-JQ1 after shRNA for MTHFD1 (A549 cells) |
| --- | --- | --- | --- | --- | --- | --- | --- | --- | --- | --- | --- |
| CN(Cc1cnc2nc(N)nc(N)c2n1)c1ccc(C(=O)N[C@@H](CCC(=O)O)C(=O)O)cc1 [MTX, methotrexate] | only weakly increased | unaffected | did not affect BRD4 levels | not impairing MTHFD1 (or SHMT1) nuclear localization | highly correlated characteristic changes specifically in the nuclear folate pool | moderate to low sensitivity | not impaired | – | – | – | – |
| Cc1sc2c(c1C)C(c1ccc(Cl)cc1)=N[C@@H](CC(=O)OC(C)(C)C)c1nnc(C)n1-2 [(S)-JQ1] | – | unaffected | – | – | – | low sensitivity | not impaired | robustly expressed RFP | rapid and consistent expression of the reporter gene red fluorescent protein (RFP) | induced WT-KBM7 diploidization | increased sensitivity |
